The values that follow come from patent publication US12479847B2 (DANA-FARBER CANCER INSTITUTE, INC., priority 2019, dated 2025).

The structures appear in SMILES notation. Where two headings read alike, the source gives them in different places.

Assay in all cases: KINOMEscan (ScanMAX) kinase profiling
Type in all cases: binding

Experiment [1] deals with T1, panel of 468 kinases (Homo sapiens, UniProt P00519, F317L).
T1 construct: purchased KINOMEscan (ScanMAX) service
The settings on record: 1 μM, read-out: % control.

The target in experiment [2] is T2, panel of 468 kinases (Homo sapiens, UniProt P00533, T790M).
T2 construct: purchased KINOMEscan (ScanMAX) service
The settings on record: EGFR(T790M); 1 μM; read-out: % control.

Experiment [3] concerns the target T3, panel of 468 kinases (Homo sapiens, UniProt P06213).
T3 construct: purchased KINOMEscan (ScanMAX) service
The settings on record: INSR; 1 μM; read-out: % control.

The target of experiment [4] is T4, panel of 468 kinases (Homo sapiens, UniProt P25098).
T4 construct: purchased KINOMEscan (ScanMAX) service
T4 sequence (P25098 1-689): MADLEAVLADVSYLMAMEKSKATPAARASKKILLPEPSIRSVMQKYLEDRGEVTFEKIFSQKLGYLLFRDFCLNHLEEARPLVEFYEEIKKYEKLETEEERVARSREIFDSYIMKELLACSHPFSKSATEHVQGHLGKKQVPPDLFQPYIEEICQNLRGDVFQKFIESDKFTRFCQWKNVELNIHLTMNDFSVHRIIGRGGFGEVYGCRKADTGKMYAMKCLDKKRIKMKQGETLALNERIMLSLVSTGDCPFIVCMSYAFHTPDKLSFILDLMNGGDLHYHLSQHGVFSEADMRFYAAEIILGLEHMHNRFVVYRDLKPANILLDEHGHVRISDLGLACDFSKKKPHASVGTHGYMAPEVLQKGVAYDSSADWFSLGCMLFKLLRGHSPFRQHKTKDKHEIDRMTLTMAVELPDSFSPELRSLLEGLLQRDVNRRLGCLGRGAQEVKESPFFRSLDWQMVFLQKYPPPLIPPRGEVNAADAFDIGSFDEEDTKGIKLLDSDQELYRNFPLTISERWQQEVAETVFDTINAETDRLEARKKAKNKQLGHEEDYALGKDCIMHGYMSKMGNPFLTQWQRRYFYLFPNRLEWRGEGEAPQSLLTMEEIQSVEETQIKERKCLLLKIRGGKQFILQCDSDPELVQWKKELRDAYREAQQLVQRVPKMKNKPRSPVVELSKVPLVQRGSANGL
The settings on record: GRK2; 1 μM; read-out: % control.

In experiment [5] the target is T5, panel of 468 kinases (Homo sapiens, UniProt P41240).
T5 construct: purchased KINOMEscan (ScanMAX) service
The settings on record: CSK; 1 μM; read-out: % control.

In experiment [6] the target is T6, panel of 468 kinases (Homo sapiens, UniProt P45985).
T6 construct: purchased KINOMEscan (ScanMAX) service
T6 sequence (P45985 1-399): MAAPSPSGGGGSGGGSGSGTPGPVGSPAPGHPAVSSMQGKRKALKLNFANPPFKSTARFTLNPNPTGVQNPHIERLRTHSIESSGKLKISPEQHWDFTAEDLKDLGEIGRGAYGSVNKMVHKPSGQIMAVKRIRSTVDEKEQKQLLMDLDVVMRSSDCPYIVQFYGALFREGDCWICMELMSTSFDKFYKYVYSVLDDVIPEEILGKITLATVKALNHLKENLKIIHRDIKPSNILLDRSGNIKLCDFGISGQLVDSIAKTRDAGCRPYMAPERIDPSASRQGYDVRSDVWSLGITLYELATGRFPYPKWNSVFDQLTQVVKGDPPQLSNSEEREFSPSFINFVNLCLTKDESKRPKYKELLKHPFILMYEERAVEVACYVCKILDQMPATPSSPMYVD
The settings on record: MEK4; 1 μM; read-out: % control.

Experiment [7] concerns the target T7, panel of 468 kinases (Homo sapiens, UniProt Q07002).
T7 construct: purchased KINOMEscan (ScanMAX) service
The settings on record: PCTK3; 1 μM; read-out: % control.

Experiment [8] addresses T8, panel of 468 kinases (Homo sapiens, UniProt Q9UM73, L1196M).
T8 construct: purchased KINOMEscan (ScanMAX) service
The settings on record: ALK(L1196M); 1 μM; read-out: % control.

T8 sequence (Q9UM73 19-1620 L1196M): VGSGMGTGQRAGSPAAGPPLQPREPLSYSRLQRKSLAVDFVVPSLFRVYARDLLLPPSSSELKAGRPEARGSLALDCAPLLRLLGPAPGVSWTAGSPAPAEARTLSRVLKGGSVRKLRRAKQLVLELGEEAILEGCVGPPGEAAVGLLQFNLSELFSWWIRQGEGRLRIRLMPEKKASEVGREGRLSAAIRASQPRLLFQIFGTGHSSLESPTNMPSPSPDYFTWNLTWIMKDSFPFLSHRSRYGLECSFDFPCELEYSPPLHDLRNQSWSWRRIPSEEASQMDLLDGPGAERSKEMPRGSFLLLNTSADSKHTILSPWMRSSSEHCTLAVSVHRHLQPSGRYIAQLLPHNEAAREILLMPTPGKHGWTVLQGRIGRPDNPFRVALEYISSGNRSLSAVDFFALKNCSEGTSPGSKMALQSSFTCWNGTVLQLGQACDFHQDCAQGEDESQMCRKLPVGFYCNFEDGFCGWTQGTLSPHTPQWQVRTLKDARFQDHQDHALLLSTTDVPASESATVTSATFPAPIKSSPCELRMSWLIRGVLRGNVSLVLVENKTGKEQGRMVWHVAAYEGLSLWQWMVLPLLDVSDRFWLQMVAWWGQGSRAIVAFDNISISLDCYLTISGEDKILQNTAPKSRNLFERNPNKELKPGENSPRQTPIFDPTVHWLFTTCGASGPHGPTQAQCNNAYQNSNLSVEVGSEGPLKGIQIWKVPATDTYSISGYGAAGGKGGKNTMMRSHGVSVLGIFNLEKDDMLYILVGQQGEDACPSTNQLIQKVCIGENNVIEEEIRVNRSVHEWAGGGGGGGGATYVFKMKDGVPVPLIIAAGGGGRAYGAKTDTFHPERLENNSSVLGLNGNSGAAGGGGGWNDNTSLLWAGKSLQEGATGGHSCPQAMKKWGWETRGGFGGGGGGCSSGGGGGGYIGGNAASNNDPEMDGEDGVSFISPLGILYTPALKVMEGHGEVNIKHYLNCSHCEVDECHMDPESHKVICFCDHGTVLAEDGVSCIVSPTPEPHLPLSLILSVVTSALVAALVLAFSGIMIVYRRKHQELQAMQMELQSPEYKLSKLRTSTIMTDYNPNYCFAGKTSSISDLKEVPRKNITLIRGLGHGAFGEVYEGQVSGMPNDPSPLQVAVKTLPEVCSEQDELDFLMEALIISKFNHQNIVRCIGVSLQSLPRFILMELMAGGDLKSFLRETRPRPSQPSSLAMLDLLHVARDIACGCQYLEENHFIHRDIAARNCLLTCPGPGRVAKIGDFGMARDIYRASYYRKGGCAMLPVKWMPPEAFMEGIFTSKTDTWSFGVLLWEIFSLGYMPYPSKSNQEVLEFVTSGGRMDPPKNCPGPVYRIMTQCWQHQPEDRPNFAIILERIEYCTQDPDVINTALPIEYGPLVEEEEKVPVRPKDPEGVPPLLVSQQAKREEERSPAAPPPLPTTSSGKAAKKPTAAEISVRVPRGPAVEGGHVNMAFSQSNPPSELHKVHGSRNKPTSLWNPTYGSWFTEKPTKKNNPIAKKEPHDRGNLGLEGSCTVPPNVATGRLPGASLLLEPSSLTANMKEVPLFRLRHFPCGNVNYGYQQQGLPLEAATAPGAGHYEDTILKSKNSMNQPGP
T3 sequence (P06213 28-1382): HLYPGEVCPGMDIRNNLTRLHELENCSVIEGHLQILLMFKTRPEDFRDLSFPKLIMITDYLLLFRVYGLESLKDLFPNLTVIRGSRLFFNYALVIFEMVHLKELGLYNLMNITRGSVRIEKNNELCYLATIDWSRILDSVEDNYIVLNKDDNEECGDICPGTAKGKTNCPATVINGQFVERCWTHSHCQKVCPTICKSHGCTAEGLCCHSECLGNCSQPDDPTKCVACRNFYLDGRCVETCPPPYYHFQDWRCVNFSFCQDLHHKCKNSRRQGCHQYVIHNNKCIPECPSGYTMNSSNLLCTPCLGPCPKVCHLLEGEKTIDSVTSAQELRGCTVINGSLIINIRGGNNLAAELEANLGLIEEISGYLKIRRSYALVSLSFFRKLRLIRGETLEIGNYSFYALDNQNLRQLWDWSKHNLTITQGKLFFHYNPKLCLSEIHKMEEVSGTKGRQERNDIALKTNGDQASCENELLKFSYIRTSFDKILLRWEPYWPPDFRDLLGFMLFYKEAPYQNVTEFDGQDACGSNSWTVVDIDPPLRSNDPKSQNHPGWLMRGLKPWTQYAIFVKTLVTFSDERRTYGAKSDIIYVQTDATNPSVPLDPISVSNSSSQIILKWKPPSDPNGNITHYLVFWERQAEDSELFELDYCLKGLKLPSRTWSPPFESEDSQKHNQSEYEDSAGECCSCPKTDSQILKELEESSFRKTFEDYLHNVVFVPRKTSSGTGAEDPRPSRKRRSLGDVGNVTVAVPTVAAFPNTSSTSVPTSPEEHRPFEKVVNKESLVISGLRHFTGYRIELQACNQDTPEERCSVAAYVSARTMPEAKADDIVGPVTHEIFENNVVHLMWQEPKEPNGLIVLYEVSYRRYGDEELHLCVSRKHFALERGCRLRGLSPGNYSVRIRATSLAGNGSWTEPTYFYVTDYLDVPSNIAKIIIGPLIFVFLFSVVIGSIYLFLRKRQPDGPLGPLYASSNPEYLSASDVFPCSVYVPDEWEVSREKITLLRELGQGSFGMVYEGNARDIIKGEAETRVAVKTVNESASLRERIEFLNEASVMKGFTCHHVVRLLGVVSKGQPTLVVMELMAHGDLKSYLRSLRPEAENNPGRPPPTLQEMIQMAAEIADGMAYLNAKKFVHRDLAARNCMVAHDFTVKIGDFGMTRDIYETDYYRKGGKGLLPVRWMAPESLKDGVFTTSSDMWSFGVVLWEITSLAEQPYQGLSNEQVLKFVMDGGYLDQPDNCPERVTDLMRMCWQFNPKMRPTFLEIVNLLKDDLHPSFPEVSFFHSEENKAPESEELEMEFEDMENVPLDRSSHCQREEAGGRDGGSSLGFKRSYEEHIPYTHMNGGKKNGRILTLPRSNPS
T7 sequence (Q07002 whole entry): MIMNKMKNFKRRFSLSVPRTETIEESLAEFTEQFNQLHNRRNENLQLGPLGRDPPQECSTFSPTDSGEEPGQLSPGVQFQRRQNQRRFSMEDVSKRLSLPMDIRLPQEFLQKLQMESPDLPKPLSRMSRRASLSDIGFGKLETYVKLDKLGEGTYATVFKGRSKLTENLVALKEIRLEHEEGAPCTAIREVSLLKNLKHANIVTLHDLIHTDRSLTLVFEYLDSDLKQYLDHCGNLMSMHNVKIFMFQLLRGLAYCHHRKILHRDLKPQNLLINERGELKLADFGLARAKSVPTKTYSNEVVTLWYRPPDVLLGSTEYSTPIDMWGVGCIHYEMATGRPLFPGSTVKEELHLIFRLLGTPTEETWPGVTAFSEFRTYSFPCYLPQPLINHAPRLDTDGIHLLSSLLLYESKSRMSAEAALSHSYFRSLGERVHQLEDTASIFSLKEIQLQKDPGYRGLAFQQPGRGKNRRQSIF
T2 sequence (P00533 25-1210 T790M): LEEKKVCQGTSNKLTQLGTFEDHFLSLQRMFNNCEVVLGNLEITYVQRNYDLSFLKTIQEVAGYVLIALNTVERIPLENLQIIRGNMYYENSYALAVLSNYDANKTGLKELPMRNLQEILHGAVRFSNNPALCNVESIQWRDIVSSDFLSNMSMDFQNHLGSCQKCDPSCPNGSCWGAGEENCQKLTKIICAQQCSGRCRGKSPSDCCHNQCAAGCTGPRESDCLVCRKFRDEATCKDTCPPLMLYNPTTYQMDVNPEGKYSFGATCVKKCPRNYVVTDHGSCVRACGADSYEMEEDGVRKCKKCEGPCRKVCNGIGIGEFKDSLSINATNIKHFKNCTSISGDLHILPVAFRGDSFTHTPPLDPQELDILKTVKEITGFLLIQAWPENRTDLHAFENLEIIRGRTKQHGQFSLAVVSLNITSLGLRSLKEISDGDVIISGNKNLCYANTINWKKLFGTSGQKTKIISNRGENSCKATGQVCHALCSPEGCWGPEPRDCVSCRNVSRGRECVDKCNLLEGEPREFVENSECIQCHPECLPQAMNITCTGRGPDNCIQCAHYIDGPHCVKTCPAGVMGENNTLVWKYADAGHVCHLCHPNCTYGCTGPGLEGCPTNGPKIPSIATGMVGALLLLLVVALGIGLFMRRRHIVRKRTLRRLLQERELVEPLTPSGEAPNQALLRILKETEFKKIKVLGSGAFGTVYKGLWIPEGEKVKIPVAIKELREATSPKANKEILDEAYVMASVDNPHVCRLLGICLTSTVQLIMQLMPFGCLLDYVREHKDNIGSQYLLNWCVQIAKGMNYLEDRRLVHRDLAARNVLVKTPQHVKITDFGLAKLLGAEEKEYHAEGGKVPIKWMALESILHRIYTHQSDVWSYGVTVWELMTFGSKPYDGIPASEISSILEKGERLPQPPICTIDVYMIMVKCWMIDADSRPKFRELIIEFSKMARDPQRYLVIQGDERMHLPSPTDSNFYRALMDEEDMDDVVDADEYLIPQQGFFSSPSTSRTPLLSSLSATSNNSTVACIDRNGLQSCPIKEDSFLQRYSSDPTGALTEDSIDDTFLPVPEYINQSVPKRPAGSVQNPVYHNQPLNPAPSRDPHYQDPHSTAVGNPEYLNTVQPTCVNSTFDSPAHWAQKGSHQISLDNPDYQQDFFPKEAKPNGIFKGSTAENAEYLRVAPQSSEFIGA
T5 sequence (P41240 whole entry): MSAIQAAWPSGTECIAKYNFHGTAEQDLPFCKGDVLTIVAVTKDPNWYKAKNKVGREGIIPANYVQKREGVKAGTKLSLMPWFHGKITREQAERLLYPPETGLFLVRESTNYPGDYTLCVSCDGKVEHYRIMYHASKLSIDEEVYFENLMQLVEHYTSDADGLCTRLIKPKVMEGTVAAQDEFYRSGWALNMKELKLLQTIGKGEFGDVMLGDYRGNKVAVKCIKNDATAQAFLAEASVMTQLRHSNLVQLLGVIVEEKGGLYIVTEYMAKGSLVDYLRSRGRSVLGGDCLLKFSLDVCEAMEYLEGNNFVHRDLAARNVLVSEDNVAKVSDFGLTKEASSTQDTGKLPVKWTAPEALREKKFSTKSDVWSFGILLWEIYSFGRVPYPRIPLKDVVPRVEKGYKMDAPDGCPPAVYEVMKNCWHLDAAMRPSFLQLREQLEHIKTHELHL

`CNc1nc(Nc2ccc(C(=O)N3CCC(N4CCOCC4)CC3)c3c2OCO3)nc2[nH]cc(Cl)c12` [Compound 75, (7-((5-chloro-4-(methylamino)-7H-pyrrolo[2,3-d]pyrimidin-2-yl)amino)benzo[d][1,3]dioxol-4-yl)(4-morpholinopiperidin-1-yl)methanone]: the remaining binding at 1 µM on panel of 468 kinases [1] (ABL1(F317L)-nonphosphorylated) worked out at 100%; on panel of 468 kinases [1] (ABL1(F317L)-phosphorylated) it was 47%; at panel of 468 kinases [2], 63%; at panel of 468 kinases [3], 24%; on panel of 468 kinases [4] it was 100%; at panel of 468 kinases [5] it was 100%. Further, the remaining binding at 1 µM at panel of 468 kinases [6] is 0.05%; on panel of 468 kinases [7], 100%; on panel of 468 kinases [8], 27%.
In the case of `CNc1nc(Nc2ccc(P3(=O)CCN(C4CCOCC4)CC3)cc2OC)nc2[nH]cc(Cl)c12` [Compound 77, 4-(4-((5-chloro-4-(methylamino)-7H-pyrrolo[2,3-d]pyrimidin-2-yl)amino)-3-methoxyphenyl)-1-(tetrahydro-2H-pyran-4-yl)-1,4-azaphosphinane 4-oxide], the remaining binding at 1 µM was determined as 100% on panel of 468 kinases [1] (ABL1(F317L)-nonphosphorylated); 54% at panel of 468 kinases [1] (ABL1(F317L)-phosphorylated); 55% at panel of 468 kinases [2]; 18% on panel of 468 kinases [3]; 98% on panel of 468 kinases [4]; 100% on panel of 468 kinases [5]. Also, the remaining binding at 1 µM at panel of 468 kinases [6] was 4.7%; at panel of 468 kinases [7], 100%; at panel of 468 kinases [8] it was 7.1%.
Take `CNc1nc(Nc2ccc(S(=O)(=O)N3CCC(N4CCOCC4)CC3)cc2OC)nc2[nH]cc(Cl)c12` [Compound 12, 5-chloro-N2-(2-methoxy-4-((4-morpholinopiperidin-1-yl)sulfonyl)phenyl)-N4-methyl-7H-pyrrolo[2,3-d]pyrimidine-2,4-diamine]: the remaining binding at 1 µM on panel of 468 kinases [1] (ABL1(F317L)-nonphosphorylated) was 100%; at panel of 468 kinases [1] (ABL1(F317L)-phosphorylated), 70%; at panel of 468 kinases [2] it was 75%; on panel of 468 kinases [3], 50%; at panel of 468 kinases [4], 100%; on panel of 468 kinases [5], 100%. Besides, the results for the remaining binding at 1 µM at panel of 468 kinases [6], at panel of 468 kinases [7] and at panel of 468 kinases [8] were 26%, 100% and 11%, respectively.
